Experiments:
Pythium ultimum = experiment: Pythium ultimum/liquid culture (seedling damping off); assay type: cell-based; details: Globisporangium ultimum, liquid culture, growth inhibition determined photometrically 2-3 days after application, compared to untreated control
Procedure: Mycelia fragments and oospores of a newly grown liquid culture of the fungus are directly mixed into nutrient broth (PDB potato dextrose broth). After placing a (DMSO) solution of test compound into a microtiter plate (96-well format), the nutrient broth containing the fungal mycelia/spore mixture is added. The test plates are incubated at 24° C. and the inhibition of growth is determined photometrically 2-3 days after application.

Phytophthora infestans = experiment: whole plant or invertebrate; assay type: in vivo; details: in Solanum lycopersicum, foliar, read-out: control of Phytophthora infestans
Plasmopara viticola = experiment: whole plant or invertebrate; assay type: in vivo; details: foliar, read-out: control of Plasmopara viticola
[1] = system: Monographella nivalis (Microdochium nivale); experiment: Monographella nivalis (Microdochium nivale)/liquid culture (foot rot cereals); assay type: cell-based; details: liquid culture, growth inhibition determined photometrically 4-5 days after application, compared to untreated control
Procedure: The fungicidal activity of the compounds of the invention have been tested as follows: • Monographella nivalis (Microdochium nivale)/liquid culture (foot rot cereals) Conidia of the fungus from cryogenic storage are directly mixed into nutrient broth (PDB potato dextrose broth). After placing a (DMSO) solution of test compound into a microtiter plate (96-well format), the nutrient broth containing the fungal spores is added. The test plates are incubated at 24° C. and the inhibition of growth is determined photometrically 4-5 days after application.

Row | SMILES | inhibition of growth at 20 ppm (Pythium ultimum) [%] | pest or weed control at 200 ppm (Phytophthora infestans) [%] | pest or weed control at 200 ppm (Plasmopara viticola) [%] | inhibition of growth at 20 ppm [1] [%]
1 | COC(=O)Nc1ccc(-c2cnc3cnc(C(=O)N4CCN(C)c5cc(F)ccc54)cn23)cn1 [Compound 53, methyl N-[5-[6-(6-fluoro-4-methyl-2,3-dihydroquinoxaline-1-carbonyl)imidazo[1,2-a]pyrazin-3-yl]-2-pyridyl]carbamate] | ≥ 80 |  |  | 
2 | COC(=O)Nc1ccc(-c2cnc3cnc(C(=O)N(C)c4ccc(F)c(OC)c4)cn23)cc1 [Compound 58, methyl N-[4-[6-[(4-fluoro-3-methoxy-phenyl)-methyl-carbamoyl]imidazo[1,2-a]pyrazin-3-yl]phenyl]carbamate] | ≥ 80 | ≥ 80 | ≥ 80 | 
3 | CC(=O)Nc1ccc(-c2cnc3cnc(C(=O)N(C)c4ccc(F)cc4)cn23)cc1 [Compound 38, 3-(4-acetamidophenyl)-N-(4-fluorophenyl)-N-methyl-imidazo[1,2-a]pyrazine-6-carboxamide] | ≥ 80 |  |  | 
4 | CC(=O)Nc1ccc(-c2cnc3cnc(C(=O)N(C)c4ccc(Cl)cc4)cn23)cc1 [Compound 37, 3-(4-acetamidophenyl)-N-(4-chlorophenyl)-N-methyl-imidazo[1,2-a]pyrazine-6-carboxamide] |  | ≥ 80 | ≥ 80 | 
5 | COC(=O)Nc1ccc(-c2cnc3cnc(C(=O)N(CC#N)c4ccc(Cl)c(OC)c4)cn23)cn1 [Compound 3, methyl N-[5-[6-[(4-chloro-3-methoxy-phenyl)-(cyanomethyl)carbamoyl]imidazo[1,2-a]pyrazin-3-yl]-2-pyridyl]carbamate] | ≥ 80 | ≥ 80 |  | 
6 | COc1cc(N(C)C(=O)c2cn3c(-c4ccc(NC(=O)C5CC5)nc4)cnc3cn2)ccc1F [Compound 50, 3-[6-(cyclopropanecarbonylamino)-3-pyridyl]-N-(4-fluoro-3-methoxy-phenyl)-N-methyl-imidazo[1,2-a]pyrazine-6-carboxamide] |  | ≥ 80 |  | 
7 | COC(=O)Nc1ccc(-c2cnc3cnc(C(=O)N(CC#N)c4ccc(F)c(OC)c4)cn23)cn1 [Compound 2, methyl N-[5-[6-[cyanomethyl-(4-fluoro-3-methoxy-phenyl)carbamoyl]imidazo[1,2-a]pyrazin-3-yl]-2-pyridyl]carbamate] | ≥ 80 | ≥ 80 |  | 
8 | COCN(C(=O)c1cn2c(-c3ccc(NC(=O)OC)nc3)cnc2cn1)c1ccc(C#N)c(OC)c1 [Compound 55, methyl N-[5-[6-[(4-cyano-3-methoxy-phenyl)-(methoxymethyl)carbamoyl]imidazo[1,2-a]pyrazin-3-yl]-2-pyridyl]carbamate] | ≥ 80 |  | ≥ 80 | 
9 | COC(=O)Nc1ccc(-c2cnc3cnc(C(=O)N(C)c4ccc(F)c(OC)c4)cn23)cn1 [Compound 4, methyl N-[5-[6-[(4-fluoro-3-methoxy-phenyl)-methyl-carbamoyl]imidazo[1,2-a]pyrazin-3-yl]-2-pyridyl]carbamate] | ≥ 80 | ≥ 80 |  | 
10 | CC(=O)Nc1ccc(-c2cnc3cnc(C(=O)N(C)c4ccc(Br)cc4)cn23)cc1 [Compound 34, 3-(4-acetamidophenyl)-N-(4-bromophenyl)-N-methyl-imidazo[1,2-a]pyrazine-6-carboxamide] | ≥ 80 |  |  | ≥ 80
11 | COCN(C(=O)c1cn2c(-c3ccc(NC(=O)OC)nc3)cnc2cn1)c1ccc(F)c(OC)c1 [Compound 1, methyl N-[5-[6-[(4-fluoro-3-methoxy-phenyl)-(methoxymethyl)carbamoyl]imidazo[1,2-a]pyrazin-3-yl]-2-pyridyl]carbamate] | ≥ 80 | ≥ 80 | ≥ 80 | 
12 | CCOC(=O)Nc1ccc(-c2cnc3cnc(C(=O)N(C)c4ccc(Cl)cc4)cn23)cc1 [Compound 8, ethyl N-[4-[6-[(4-chlorophenyl)-methyl-carbamoyl]imidazo[1,2-a]pyrazin-3-yl]phenyl]carbamate] |  |  | ≥ 80 | ≥ 80
13 | COC(=O)Nc1ccc(-c2cnc3cnc(C(=O)N(C)c4ccc(Cl)cc4)cn23)cc1 [Compound 28, methyl N-[4-[6-[(4-chlorophenyl)-methyl-carbamoyl]imidazo[1,2-a]pyrazin-3-yl]phenyl]carbamate] | ≥ 80 |  | ≥ 80 | ≥ 80
14 | CNC(=O)Nc1ccc(-c2cnc3cnc(C(=O)N(C)c4ccc(Cl)cc4)cn23)cc1 [Compound 6, N-(4-chlorophenyl)-N-methyl-3-[4-(methylcarbamoylamino)phenyl]imidazo[1,2-a]pyrazine-6-carboxamide] |  |  | ≥ 80 | ≥ 80
15 | COC(=O)Nc1ccc(-c2cnc3cnc(C(=O)N(C)c4ccc(C#N)c(OC)c4)cn23)cc1 [Compound 59, methyl N-[4-[6-[(4-cyano-3-methoxy-phenyl)-methyl-carbamoyl]imidazo[1,2-a]pyrazin-3-yl]phenyl]carbamate] | ≥ 80 | ≥ 80 | ≥ 80 | 
16 | COc1cc(N(C)C(=O)c2cn3c(-c4ccc(NC(=O)C5CC5)cc4)cnc3cn2)ccc1F [Compound 46, 3-[4-(cyclopropanecarbonylamino)phenyl]-N-(4-fluoro-3-methoxy-phenyl)-N-methyl-imidazo[1,2-a]pyrazine-6-carboxamide] |  | ≥ 80 |  | 
17 | CON(C)C(=O)Nc1ccc(-c2cnc3cnc(C(=O)N(C)c4ccc(Cl)cc4)cn23)cc1 [Compound 5, N-(4-chlorophenyl)-3-[4-[[methoxy(methyl)carbamoyl]amino]phenyl]-N-methyl-imidazo[1,2-a]pyrazine-6-carboxamide] |  |  |  | ≥ 80
18 | COC(=O)Nc1ccc(-c2cnc3cnc(C(=O)N4CCCc5cc(F)ccc54)cn23)cn1 [Compound 42, methyl N-[5-[6-(6-fluoro-3,4-dihydro-2H-quinoline-1-carbonyl)imidazo[1,2-a]pyrazin-3-yl]-2-pyridyl]carbamate] |  | ≥ 80 |  | 
19 | COCC(=O)Nc1ccc(-c2cnc3cnc(C(=O)N(C)c4ccc(Cl)cc4)cn23)cc1 [Compound 27, N-(4-chlorophenyl)-3-[4-[(2-methoxyacetyl)amino]phenyl]-N-methyl-imidazo[1,2-a]pyrazine-6-carboxamide] | ≥ 80 |  |  | 
20 | CC(=O)Nc1ccc(-c2cnc3cnc(C(=O)N(C)c4ccc(C#N)cc4)cn23)cc1 [Compound 36, 3-(4-acetamidophenyl)-N-(4-cyanophenyl)-N-methyl-imidazo[1,2-a]pyrazine-6-carboxamide] |  |  | ≥ 80 | 
21 | COC(=O)Nc1ccc(-c2cnc3cnc(C(=O)N(C)c4ccc(C#N)cc4)cn23)cc1 [Compound 9, methyl N-[4-[6-[(4-cyanophenyl)-methyl-carbamoyl]imidazo[1,2-a]pyrazin-3-yl]phenyl]carbamate] | ≥ 80 |  |  | 
22 | COc1cc(N(C)C(=O)c2cn3c(-c4ccc(NC(C)=O)cc4)cnc3cn2)ccc1F [Compound 51, 3-(4-acetamidophenyl)-N-(4-fluoro-3-methoxy-phenyl)-N-methyl-imidazo[1,2-a]pyrazine-6-carboxamide] |  | ≥ 80 |  | 

Source: patent US20260283153A1 (priority 2023, published 2026)
